Assay results as given in US11358969B2, “Indole AHR inhibitors and uses thereof” (Ikena Oncology, Inc., priority 2017, dated 2022).
pIC50: −log10 of the molar value. Several values for one entry are separate records, joined by “and”; a condition that tells them apart may be missing. Identical values can stand only once.

Assays:
AHR = target: T1, AHR (UniProt P35869); assay: DRE-Luciferase Reporter Assay (Alternate Method) (Example 1B); assay type: cell-based, murine or human; conditions: cell line and AHR activating ligand not specified
T1 construct: IC50
T1 sequence (P35869 1-848): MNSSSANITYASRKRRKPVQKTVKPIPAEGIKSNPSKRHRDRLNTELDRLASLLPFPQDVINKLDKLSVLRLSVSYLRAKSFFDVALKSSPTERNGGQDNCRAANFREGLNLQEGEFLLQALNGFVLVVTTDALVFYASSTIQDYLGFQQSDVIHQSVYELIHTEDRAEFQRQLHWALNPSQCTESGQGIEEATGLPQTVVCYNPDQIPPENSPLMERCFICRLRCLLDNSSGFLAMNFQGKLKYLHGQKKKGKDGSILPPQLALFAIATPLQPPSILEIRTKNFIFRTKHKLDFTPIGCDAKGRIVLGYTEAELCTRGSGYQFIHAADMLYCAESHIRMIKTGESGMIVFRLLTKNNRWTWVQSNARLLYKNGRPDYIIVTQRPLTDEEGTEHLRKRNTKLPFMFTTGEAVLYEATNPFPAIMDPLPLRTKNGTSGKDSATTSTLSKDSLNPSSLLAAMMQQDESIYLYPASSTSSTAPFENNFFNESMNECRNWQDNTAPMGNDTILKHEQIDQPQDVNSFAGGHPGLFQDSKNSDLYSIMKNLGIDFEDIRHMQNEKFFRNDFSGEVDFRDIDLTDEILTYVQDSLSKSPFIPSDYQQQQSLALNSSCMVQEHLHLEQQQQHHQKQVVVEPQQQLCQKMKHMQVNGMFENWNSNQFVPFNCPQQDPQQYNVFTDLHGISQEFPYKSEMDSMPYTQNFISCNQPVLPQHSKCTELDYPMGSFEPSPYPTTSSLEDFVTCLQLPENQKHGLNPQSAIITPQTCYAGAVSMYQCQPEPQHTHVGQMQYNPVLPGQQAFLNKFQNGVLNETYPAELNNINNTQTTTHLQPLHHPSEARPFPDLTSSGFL

[1] = In Vitro Mouse liver S9 Metabolic Stability Assay (Example 1D); assay type: in vitro ADME; conditions: CD-1 mouse liver S9, 1 μM compound, 1 mg/mL S9 protein, 37° C., NADPH regenerating system, UDPGA, PAPS
Method: CD-1 mouse liver S9 were purchased from Corning or XenoTech LLC or BioreclamationIVT, LLC or WuXi prepared. The cells were stored at −80° C. in a freezer before use. β-Nicotinamide adenine dinucleotide phosphate (NADP), Glucose 6-phosphate (G6P), Glucose 6-phosphate dehydrogenase from yeast (G6PDH), Uridine 5′-diphophoglucuronic acid trisodium salt (UDPGA) and Adenosine 3′-phosphate 5′-phosphosulfate lithium salt hydrate (PAPS) were available commercially from Sigma.
Compounds were diluted in DMSO to make 10 mM stock solution. 5 μL of this stock solution (10 mM, DMSO) was diluted with 45 μL DMSO and 450 μL 50% Methanol/Water to make intermediate stock solution (100 μM, 45% MeOH, 10% DMSO). 50 μL of intermediate stock solution was diluted with 450 μL 100 mM phosphate buffer to make a final stock solution (10 μM, 4.5% MeOH, 1% DMSO). 10 uL of final stock solution was added to 90 uL liver S9 system (final concentration of 1 μM, 0.45% MeOH, 0.1% DMSO).
Test compounds were incubated at 37° C. with liver S9 (pooled from multiple donors) at 1 μM in the presence of a NADPH regenerating system, UDPGA, and PAPS at 1 mg/mL S9 protein. Time samples (0 and 60 minutes) were removed and immediately mixed with cold acetonitrile containing internal standard (IS). Samples were analyzed by LC/MS/MS and disappearance of test compounds were assessed based on peak area ratios of analyte /IS (no standard curve). All samples were injected and analyzed using LC-MS/MS. The analyte/internal standard peak area ratios were converted to percentage remaining (% Remaining) with the following equation: % Remaining at 60 min=(Peak area ratio of analyte to IS at 60 min/Peak area ratio of analyte to IS at t=0)×100%. Table 5. Mouse Stability Data According to Example 1D.

[2] = Mouse Pharmacokinetic Study (Example 1C); assay type: in vivo; conditions: mouse, plasma, CD-1 mice; for Vd: read-out: Vdss
Method: Formulations of compounds set forth in Table 4 were administered intravenously or orally via gavage to CD-1 mice. Typically, at 0.167, 0.5, 1, 2, 4, 6, 12, and 24 hours post-dose, blood was collected and processed to plasma by centrifugation and stored at −80° C. until analysis.
Internal standard was added to each sample prior to protein precipitation with acetonitrile. The precipitates were filtered through a Phree phospholipid removal filter plate and the samples were analyzed by LC/MS/MS. A standard curve was prepared in plasma from typically from 1.0 ng/mL to 3000 ng/mL and processed in the same manner as the samples. Sample analysis was typically performed on a suitable LC/MS/MS system fitted with an analytical UPLC column and compounds eluted from the analytical column with a gradient from 30-95% 0.1% formic acid (v/v) in ACN: 0.1% formic acid (v/v) in water. Mass spectrometric detection of test compound and the internal standard was performed by MRM in positive mode. The pharmacokinetics of each compound were analyzed by Phoenix WinNonlin software (Pharsight, St. Louis, Mo.) via non-compartmental analysis.

Row | Compound | pIC50 (AHR) | Mouse S9 Stability: % Remaining After 60 Minutes [1] | other results
1 | CC(C)c1cnn2c(NCCc3c[nH]c4ccccc34)nc(-c3cncc(F)c3)nc12 [I-16, 2-(5-Fluoro-3-pyridyl)-N-[2-(1H-indol-3-yl)ethyl]-8-isopropyl-pyrazolo[1,5-a][1,3,5]triazin-4-amine] | > 6.30 | 2% | 
2 | CC(C)Oc1cc(NCCc2c[nH]c3ccccc23)nc(-c2cncc(F)c2)n1 [I-21, 2-(5-Fluoro-3-pyridyl)-N-[2-(1H-indol-3-yl)ethyl]-6-isopropoxy-pyrimidin-4-amine] | > 6.30 | 26% | 
3 | CC(C)c1cnc2c(N[C@@H]3CCc4[nH]c5ccccc5c4C3)nc(-c3cncc(F)c3)cn12 [I-30, (3R)—N-[6-(5-Fluoro-3-pyridyl)-3-isopropyl-imidazo[1,2-a]pyrazin-8-yl]-2,3,4,9-tetrahydro-1H-carbazol-3-amine] | > 6.30 | 11% | 
4 | Fc1cncc(-c2nc(N[C@@H]3CCc4[nH]c5ccccc5c4C3)cc(N3CCCC3)n2)c1 [I-36, (3R)—N-[2-(5-Fluoro-3-pyridyl)-6-pyrrolidin-1-yl-pyrimidin-4-yl]-2,3,4,9-tetrahydro-1H-carbazol-3-amine] | < 5.82 | 29% | 
5 | CC(C)c1cnn2c(NCCc3c[nH]c4ccccc34)cc(-c3ccccc3)nc12 [I-45, N-[2-(1H-indol-3-yl)ethyl]-3-isopropyl-5-phenyl-pyrazolo[1,5-a]pyrimidin-7-amine] | > 6.30 | 19% | 
6 | Fc1cncc(-c2cc(NCCc3c[nH]c4ccccc34)n3ncc(C(F)(F)F)c3n2)c1 [I-47, 5-(5-Fluoro-3-pyridyl)-N-[2-(1H-indol-3-yl)ethyl]-3-(trifluoromethyl)pyrazolo[1,5-a]pyrimidin-7-amine] | > 6.30 | 50% | 
7 | CN1CCN(c2cc(NCCc3c[nH]c4ccccc34)nc(-c3cncc(F)c3)n2)CC1 [I-67, 2-(5-Fluoro-3-pyridyl)-N-[2-(1H-indol-3-yl)ethyl]-6-(4-methylpiperazin-1-yl)pyrimidin-4-amine] | > 6.30 | 5% and 1% | 
8 | CN1CCN(C(=O)c2cnn3c(NCCc4c[nH]c5ccccc45)cc(-c4cncc(F)c4)nc23)CC1 [I-68, [5-(5-Fluoro-3-pyridyl)-7-[2-(1H-indol-3-yl)ethylamino]pyrazolo[1,5-a]pyrimidin-3-yl]-(4-methylpiperazin-1-yl)methanone] | 6.00 to 6.30 | 4% | 
9 | CC(C)Oc1cc(-c2cncc(F)c2)nc(NCCc2c[nH]c3ccccc23)n1 [I-72, 4-(5-Fluoro-3-pyridyl)-N-[2-(1H-indol-3-yl)ethyl]-6-isopropoxy-pyrimidin-2-amine] | > 6.30 | 3% | 
10 | NC(=O)c1cnn2c(NCCc3c[nH]c4ccccc34)cc(-c3cncc(F)c3)nc12 [I-78, 5-(5-Fluoro-3-pyridyl)-7-[2-(1H-indol-3-yl)ethylamino]pyrazolo[1,5-a]pyrimidine-3-carboxamide] | > 6.30 | 1% | 
11 | CC(C)c1cnn2c(NCCc3c[nH]c4ccccc34)cc(-c3cncc(C#N)c3)nc12 [I-81, 5-[7-[2-(1H-indol-3-yl)ethylamino]-3-isopropyl-pyrazolo[1,5-a]pyrimidin-5-yl]pyridine-3-carbonitrile] | > 6.30 | 2% | 
12 | CC(C)(C)c1cnn2c(NCCc3c[nH]c4ccccc34)cc(-c3cncc(F)c3)nc12 [I-90, 3-tert-Butyl-5-(5-fluoro-3-pyridyl)-N-[2-(1H-indol-3-yl)ethyl]pyrazolo[1,5-a]pyrimidin-7-amine] | > 6.30 | 11% | 
13 | CON(C)C(=O)c1cnn2c(NCCc3c[nH]c4ccccc34)cc(-c3cncc(F)c3)nc12 [I-92, 5-(5-Fluoro-3-pyridyl)-7-[2-(1H-indol-3-yl)ethylamino]-N-methoxy-N-methyl-pyrazolo[1,5-a]pyrimidine-3-carboxamide] | > 6.30 | 0% | 
14 | CC(C)c1cnn2c(NCCc3c[nH]c4c(F)cc(F)cc34)nc(-c3cncc(F)c3)nc12 [I-96, N-[2-(5,7-Difluoro-1H-indol-3-yl)ethyl]-2-(5-fluoro-3-pyridyl)-8-isopropyl-pyrazolo[1,5-a][1,3,5]triazin-4-amine] | > 6.30 | 36% | 
15 | CC(C)c1cnn2c(N[C@H](C)Cc3c[nH]c4ccccc34)cc(-c3cncc(F)c3)nc12 [I-98b] |  | 0% | 
16 | CC(C)c1cnn2c(NCCc3c[nH]c4cccnc34)nc(-c3cncc(F)c3)nc12 [I-101, 2-(5-Fluoro-3-pyridyl)-8-isopropyl-N-[2-(1H-pyrrolo[3,2-b]pyridin-3-yl)ethyl]pyrazolo[1,5-a][1,3,5]triazin-4-amine] | > 6.30 | 1% | 
17 | CC(C)c1cnn2c(N[C@H]3CCc4[nH]ccc4C3)nc(-c3cncc(F)c3)nc12 [I-137a, 2-(5-fluoro-3-pyridyl)-8-isopropyl-N-[(5S)-4,5,6,7-tetrahydro-1H-indol-5-yl]pyrazolo[1,5-a][1,3,5]triazin-4-amine] | > 6.30 |  | bioavailability ([2]; po, 30 mg/kg): 19%; AUC(0-inf) ([2]; iv, 3 mg/kg): 2010 ng·h/mL; AUC(0-t) ([2]; iv, 3 mg/kg): 1920 ng·h/mL; clearance ([2]; iv, 3 mg/kg): 25 mL/min/kg; half-life ([2]; iv, 3 mg/kg): 8.2 h; Vd ([2]; iv, 3 mg/kg): 6.6 L/kg; AUC(0-inf) ([2]; po, 30 mg/kg): 3840 ng·h/mL; AUC(0-t) ([2]; po, 30 mg/kg): 3780 ng·h/mL; Cmax ([2]; po, 30 mg/kg): 953 ng/mL; Tmax ([2]; po, 30 mg/kg): 0.5 h; half-life ([2]; po, 30 mg/kg): 3.5 h
18 | CC(C)c1cnn2c(N[C@@H]3CCc4[nH]ccc4C3)nc(-c3cncc(F)c3)nc12 [I-137b, 2-(5-fluoro-3-pyridyl)-8-isopropyl-N-[(5R)-4,5,6,7-tetrahydro-1H-indol-5-yl]pyrazolo[1,5-a][1,3,5]triazin-4-amine] | > 6.30 |  | bioavailability ([2]; po, 30 mg/kg): 28%; AUC(0-inf) ([2]; iv, 3 mg/kg): 1350 ng·h/mL; AUC(0-t) ([2]; iv, 3 mg/kg): 1220 ng·h/mL; clearance ([2]; iv, 3 mg/kg): 37 mL/min/kg; half-life ([2]; iv, 3 mg/kg): 11.2 h; Vd ([2]; iv, 3 mg/kg): 16.6 L/kg; AUC(0-inf) ([2]; po, 30 mg/kg): 3830 ng·h/mL; AUC(0-t) ([2]; po, 30 mg/kg): 3630 ng·h/mL; Cmax ([2]; po, 30 mg/kg): 476 ng/mL; Tmax ([2]; po, 30 mg/kg): 2 h; half-life ([2]; po, 30 mg/kg): 5.9 h
19 | Cc1cnn2c(N[C@H]3CCc4[nH]ccc4C3)nc(-c3cncc(F)c3)nc12 [I-259a, 2-(5-fluoro-3-pyridyl)-8-methyl-N-[(5S)-4,5,6,7-tetrahydro-1H-indol-5-yl]pyrazolo[1,5-a][1,3,5]triazin-4-amine] | > 6.30 |  | bioavailability ([2]; po, 30 mg/kg): 3%; AUC(0-inf) ([2]; iv, 3 mg/kg): 842 ng·h/mL; AUC(0-t) ([2]; iv, 3 mg/kg): 825 ng·h/mL; clearance ([2]; iv, 3 mg/kg): 59 mL/min/kg; half-life ([2]; iv, 3 mg/kg): 1.2 h; Vd ([2]; iv, 3 mg/kg): 4.7 L/kg; AUC(0-inf) ([2]; po, 30 mg/kg): 249 ng·h/mL; AUC(0-t) ([2]; po, 30 mg/kg): 237 ng·h/mL; Cmax ([2]; po, 30 mg/kg): 82 ng/mL; Tmax ([2]; po, 30 mg/kg): 0.5 h; half-life ([2]; po, 30 mg/kg): 1.2 h
